The values below come from patent US10517862B2, “Fused heterocyclic compound derivative and application thereof” (NHWA PHARMA. CORPORATION, priority 2015, dated 2019).

Series [1] relates to α1 norepinephrine receptor. Kind of series: α1 norepinephrine receptor binding assay (3H-prazosin, rat cortex membrane). The settings on record: for affinity with α1 (in words): summary of in vitro assay; for α1 Inhibition rate (%): test compound final concentration 10^−5 M, 3H-prazosin, rat cortex membrane. The text has this:
Preparation of Receptor Membrane of Norepinephrine
α1 Norepinephrine Receptor Binding Assay

The subject of another series is mice of Kunming breed. Kind of series: Apomorphine induced clambering assay of mice. Conditions: Mus musculus; mice, po; apomorphine 1 mg/kg sc 1 hour after administration; read-out: Apomorphine induced clambering (ED50, po, mg/kg). It is filed as in vivo. As for the experimental part: Healthy mice of Kunming breed (KM) (male, with body weight of 18-22 g) were provided by Qinglongshan Animal Cultivation Center, Nanjing.
Apomorphine provided by Sigma Company was dissolved in 0.9% NaCl (containing 0.1% vitamin C) before use, and was freshly formulated before use.
Vitamin C, F20061113, was provided by Sinopharm Chemical Reagent Co. Ltd.
Sodium chloride injection, H32026305, was provided by Xuzhou No. 5 Pharmaceutical Factory Co. Ltd.
Instruments: self-made clambering cage, chronograph.
Procedures: apomorphine induced clambering assay of mice
After 5 min of adaptation, the behavior of the mice at 10-11, 20-21, and 30-31 min after the injection of apomorphine were observed and scored. Scoring criteria: the behavior of 4 paws on the floor was scored as 0; the behavior of 2 forepaws on the cage was scored as 1; and the behavior of 4 paws on the cage was scored as 2.

A further series in a line: in vivo. The settings on record: both sexes, mouse, in vivo, po; single intragastric administration in mice; read-out: LD50 (po, mg/kg).
In the next series the target is Histamine H1 receptor (Rattus norvegicus, UniProt P31390). Kind of series: Histamine H1 receptor binding assay (3H-pyrilamine, rat cerebellum membrane). The settings on record: for inhibition at 10 µM: read-out: H1 Inhibition rate (%); for affinity with H1 (in words): summary of in vitro assay.
Histamine H1 receptor, sequence (P31390 whole entry): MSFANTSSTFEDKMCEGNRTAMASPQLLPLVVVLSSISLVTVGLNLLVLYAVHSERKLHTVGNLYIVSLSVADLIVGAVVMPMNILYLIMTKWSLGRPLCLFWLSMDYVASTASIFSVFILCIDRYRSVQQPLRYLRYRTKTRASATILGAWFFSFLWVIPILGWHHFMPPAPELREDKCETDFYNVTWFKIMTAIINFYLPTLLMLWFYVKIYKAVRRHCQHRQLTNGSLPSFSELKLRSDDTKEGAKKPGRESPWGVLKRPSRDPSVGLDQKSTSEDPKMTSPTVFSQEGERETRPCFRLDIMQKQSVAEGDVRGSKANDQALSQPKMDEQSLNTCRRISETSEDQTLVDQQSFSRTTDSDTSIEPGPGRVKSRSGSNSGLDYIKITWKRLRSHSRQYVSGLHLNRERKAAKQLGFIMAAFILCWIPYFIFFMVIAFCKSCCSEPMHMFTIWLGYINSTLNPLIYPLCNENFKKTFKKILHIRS

Description for Histamine H1 receptor: The supernatant was discarded to give pellets, and homogenate F was added again to the pellets for washing. Centrifugation was conducted and repeated 3 times.
(2) 100 μL of membrane preparation was added into each reaction tube.

Consider `O=C(CCCN1CCC(c2noc3cc(F)ccc23)CC1)c1cc2c3c(c1)CCC(=O)N3CCC2` [Compound 5], for which, in series [1], the “affinity with α1 (in words)” value is “low affinities” and the “α1 Inhibition rate (%)” value amounted to 43.75%. Further, the ED50 with mice of Kunming breed was 1.31 mg/kg. Also, in “in vivo”, the LD50 at 7 days was above 2000 mg/kg. At Histamine H1 receptor, the inhibition at 10 µM stood at 44.5% and the “affinity with H1 (in words)” value is recorded as “low affinities”.
For `O=C(CCN1CCC(c2noc3cc(F)ccc23)CC1)c1cc2c3c(c1)CCN3C(=O)CC2` [Compound 12], in series [1], the “affinity with α1 (in words)” value is “low affinities” and the “α1 Inhibition rate (%)” value is 58.91%. For the same compound, in the series with mice of Kunming breed, the ED50 came to 0.076 mg/kg. Also, the LD50 at 7 days in “in vivo” is above 2000 mg/kg. On Histamine H1 receptor, the inhibition at 10 µM stood at 41.4% and the “affinity with H1 (in words)” value is on record as “low affinities”.
